Experimental data taken from patent publication US20100130425A1, “USE OF TOLL-LIKE RECEPTOR LIGANDS IN TREATING EXCITOTOXIC INJURY, ISCHEMIA AND/OR HYPOXIA” (Oregon Health & Science University, priority 2005, published 2010).

Key:
[1] = test system: IFN-β; assay: Serum IFN-β in mice, immunoassay; format: in vivo, mouse; settings: 1 mg/kg, 2 hours prior to serum collection; versus CpG 0.8 mg/kg and LPS 0.4 mg/kg
Description: (§1) Mice were injected with saline, CpG (0.8 mg/kg) LPS (0.4 mg/kg) or Poly I:C (1 mg/kg) 2 hours prior to serum collection. Levels of TNF-α and IFN-β were measured using commercially available immunoassay kits.

[2] = test system: mice subjected to middle cerebral artery occlusion (MCAO); assay: In vivo ischemic/reperfusion model (MCAO), mouse model of stroke
Description: Ischemic/Reperfusion Model. […] Mice were anesthetized by halothane inhalation (4%/L O2) and maintained with 1.5%/L O2. The middle cerebral artery was blocked by a silicone-coated 8-0 monofilament nylon surgical suture that was threaded through the external carotid to the internal carotid and finally blocks the bifurcation into the MCA and anterior cerebral artery. The filament was maintained intraluminally for 45 min and then removed, thereby restoring blood flow. Cerebral blood flow (CBF) was monitored throughout the surgery by laser Doppler flowmetry (Periflow 5000; Perimed, Sweden). During and 2 hours following surgery, body temperatures was kept constant at 37° C. with a heating pad controlled by a thermostat. Body weights were monitored prior to and following MCAO.
Infarct calculations. […] Perfused brains were placed on a tissue slicer and sectioned into 1 mm thick coronal slices.

[3] = test system: mouse cortical neuronal cultures; assay: In vitro neuronal ischemia model, treatment after OGD; format: cell-based; settings: 1 to 100 μg/ml after 3 hours OGD; analyzed 24 hours later
Description: In vitro neuronal ischemia model: Neuronal cultures were exposed to 3 hours oxygen-glucose-deprivation (OGD) treatment as described in Example 1. After OGD, cells were treated with 1 to 100 μg/ml Poly I:C. 24 hours later cells were analyzed as described in Example 1.

[4] = test system: TNF-α; assay: Serum TNF-α in mice, immunoassay; format: in vivo, mouse; settings: 1 mg/kg, 2 hours prior to serum collection
Description: as §1

[5] = test system: mice subjected to bilateral renal ischemia; assay: In vivo model of renal ischemia (bilateral renal clamping), serum creatinine; set-up: species or system mouse; settings: 48 hours prior to bilateral renal clamping (45 minutes); 48 hours following reperfusion
Description: Intraperitoneal Delivery: Preconditioning agent Poly I:C (25 μg) in artificial saline or saline alone (control) was administered intraperitoneally to subject mice 72 hours prior to middle cerebral artery occlusion (MCAO; 45 minutes) as described in Example 3 or 48 hours prior to bilateral renal clamping (45 min).
Creatinine levels: To assess renal injury due to the ischemia, creatinine levels were measured 48 hours following reperfusion as follows. Mice were treated with saline or poly I:C (1.6 mg/kg; sc) 48 hrs prior to renal ischemia. Just prior to surgery blood was collected via the saphenous vien for baseline determination of creatinine levels. Bilateral ischemia was induced as follows: mice were anesthestized with 3% isoflurane and maintained at 1.5-2% throughout surgery. A midline incision was made and both kidneys exteriorized and clamps placed on the artery and veins of each kidney for 45 minutes. After ischemia, the clamps were withdrawn inducing reperfusion and the incision sutured up. Mice were euthanized 48 hr post initiation of reperfusion and blood collected. Serum levels of creatinine were determined via a commercially available immunoassay.

[6] = test system: mouse cortical neuronal cultures
Description: In vitro mouse neuronal cultures: Cortical neuronal cultures were prepared as described Jin et al. (Neurochem. Res. 27:1105-1112, 2002) from E-16 mouse pups (C57B1/6, Jackson labs). Briefly, cortices were dissected and separated from meninges, olfactory bulbs, basal ganglia and hippocampi, and the cortices digested in 0.05% trypsin-EDTA for 15 min at 37° C. Cells were triturated and single cell suspension was plated at density of 5×10^5 cells/ml. Cells were cultured in Neurobasal A medium (Invitrogen, Carlsbad) containing 2% B27, 2 mM Glutamate. Neuronal enrichment was determined by staining for neurons, microglia and astrocytes with cell specific markers.
In vitro neuronal ischemia model: Neuronal cultures were treated with varying doses of an exemplary CpG oligonucleotide (SEQ ID NO: 1) in Neurobasal-A media supplemented with 1% Glutamax 24 hours prior to 3 hours oxygen-glucose-deprivation (OGD) treatment. OGD was performed by replacing medium with PBS containing 0.5 mM CaCl2 and 5 mM MgCl2, pH 7.4, and then placing the neuronal cultures in an anaerobic chamber (Form a Scientific) containing an atmosphere of 85% N2, 5% H2, 10% CO2 maintained at 35° C. Following OGD-treatment (3 hours), PBS was replaced with Minimum Essential Medium (MEM) and the cells returned to normoxic conditions. Percent neuronal cell death was determined by propidium iodide staining in two different fields of view in duplicate, compared to total DAPI staining in identical fields.
In vitro neuronal ischemia model: Neuronal cultures were treated with varying doses (0.1 μg/ml and 1 μg/ml) of Gardiquimod in Neurobasal-A media supplemented with 1% Glutamax 24 hours prior to 3 hours oxygen-glucose-deprivation (OGD) treatment. OGD was performed and cells analyzed as described in Example 1.
OGD was performed and cell analyzed as described in Example 1.

[7] = biological target: T1, human TLR9 (Homo sapiens, UniProt Q9NR96); assay: NF-κB inducible SEAP reporter in 293-hTLR9 cells; format: cell-based; settings: 5 μM, 18 hours; hydrolysis of pNpp at 405 nm
T1 construct: host or cells: HEK293 (293-hTLR9)
T1 sequence (Q9NR96 26-1032): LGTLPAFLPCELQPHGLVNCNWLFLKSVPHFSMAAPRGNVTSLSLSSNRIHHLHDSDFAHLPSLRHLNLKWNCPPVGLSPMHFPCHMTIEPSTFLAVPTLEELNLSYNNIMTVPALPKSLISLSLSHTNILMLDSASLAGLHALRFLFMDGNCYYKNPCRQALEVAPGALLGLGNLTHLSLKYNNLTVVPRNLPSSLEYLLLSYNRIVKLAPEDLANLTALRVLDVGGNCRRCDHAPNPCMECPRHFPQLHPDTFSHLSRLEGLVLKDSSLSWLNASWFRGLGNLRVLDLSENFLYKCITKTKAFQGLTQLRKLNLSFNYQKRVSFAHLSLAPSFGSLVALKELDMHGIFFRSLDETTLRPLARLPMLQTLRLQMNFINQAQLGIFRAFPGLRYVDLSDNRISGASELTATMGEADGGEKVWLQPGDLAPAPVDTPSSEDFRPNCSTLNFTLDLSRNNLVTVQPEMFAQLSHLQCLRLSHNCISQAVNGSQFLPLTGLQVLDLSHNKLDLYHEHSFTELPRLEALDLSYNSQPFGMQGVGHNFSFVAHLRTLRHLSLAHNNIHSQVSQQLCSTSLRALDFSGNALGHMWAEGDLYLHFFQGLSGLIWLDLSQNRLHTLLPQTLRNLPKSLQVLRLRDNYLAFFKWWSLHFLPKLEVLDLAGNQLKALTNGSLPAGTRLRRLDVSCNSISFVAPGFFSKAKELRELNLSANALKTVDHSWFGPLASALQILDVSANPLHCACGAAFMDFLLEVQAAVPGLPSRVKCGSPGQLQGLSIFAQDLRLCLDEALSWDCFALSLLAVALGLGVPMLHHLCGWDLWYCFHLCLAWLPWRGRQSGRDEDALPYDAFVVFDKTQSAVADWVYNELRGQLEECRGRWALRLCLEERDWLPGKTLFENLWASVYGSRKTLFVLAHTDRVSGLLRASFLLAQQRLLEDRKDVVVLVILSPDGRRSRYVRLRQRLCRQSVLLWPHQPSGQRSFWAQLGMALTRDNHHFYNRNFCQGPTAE
Description: FIG. 3 is a bar graph illustrating NF-κB induction following in vitro treatment with an exemplary CpG oligonucleotide. 293-hTLR9 cells transfected with an NFκB inducible reporter plasmid (pNifty2-SEAP) were treated with CpG (5 μM). NFκB induction of alkaline phosphatase expression is indicated as hydrolysis of pNpp at 405 nm.
Human embryonic kidney cell line HEK293 was transfected with an expressible nucleic acid encoding human TLR9 and with an NFκB reporter construct (InvivoGen). The dual transfected cells were incubated with a 5 μM CpG oligonucleotide (SEQ ID NO: 1) for 18 hours.

[8] = cited from earlier work
[9] = 0.2-1.6 mg/kg subcutaneous 72 hours prior to 60 minutes MCAO, 24 hours post MCAO

polyinosinic polycytidylic acid [Poly I:C]
serum IFNβ levels [1]: produces significantly more IFNβ than stimulation of TLR9 or TLR4 | percent infarct ([2]; 25 μg intraperitoneally 72 hours prior to 45 minutes MCAO, TTC 72 hours following surgery): percent infarct was significantly decreased | neuroprotection, treatment after oxygen-glucose deprivation [3]: induces neuroprotection | serum TNFα levels [4]: increases TNFα levels | serum creatinine levels (renal injury) [5]: reduced the injury to baseline levels | cell death without exposure to OGD ([6]; highest dose, no OGD): did not induce cell death | neuroprotection against oxygen-glucose deprivation (cell death by PI staining) ([6]; mixed cortical cultures, increasing doses 24 hours prior to OGD): induces neuroprotection against oxygen-glucose deprivation

5′-tccatgacgttcctgacgtt-3′ [CpG oligonucleotide (SEQ ID NO: 1)]
percent infarct, time course of preconditioning ([2]; 20 μg administered between 72 and 24 hours prior to MCAO): peak preconditioning | percent infarct, time course of preconditioning ([2]; 20 μg administered up to a week prior to MCAO): significant preconditioning | percent infarct ([2]; intraperitoneal, 72 hours prior to 45 min MCAO): percent infarct was significantly decreased | neuroprotection against oxygen-glucose deprivation (percent neuronal cell death) ([6]; treated 24 hours prior to 3 hours OGD, propidium iodide staining): confers neuroprotection against oxygen-glucose deprivation | NFκB induction of alkaline phosphatase expression [7]: produced alkaline phosphatase

CCOCc1nc2c(N)nc3ccccc3c2[nH]1 [CL097]
water solubility [8]: ≥ 20 mg/mL

CCNCc1nc2c(N)nc3ccccc3c2n1CC(C)(C)O [Gardiquimod]
percent infarct (% of hemisphere with infarction) ([2]; 0.2-1.6 mg/kg 72 hours prior to 60 minutes MCAO, TTC staining 24 hours later): percent infarct was significantly decreased in a dose-dependent fashion | focal neurological deficit [2, 9]: reduced neurological deficits | general neurological deficit [2, 9]: reduced neurological deficits | neuroprotection against oxygen-glucose deprivation (% cell death) ([6]; 0.1 or 1 μg/ml 24 hours prior to OGD (3 hours), propidium iodide staining 24 hours following OGD): confers neuroprotection against oxygen-glucose deprivation

CC(C)Cn1cnc2c(N)nc3ccccc3c21 [imiquimod]
infarct size ([2]; mouse, in vivo, ip): protects against cell death

lipopolysaccharide [LPS]
infarct size (neuroprotection) ([2]; mouse, in vivo, 0.4 mg/kg): no considerable neuroprotection

CCOCc1nc2c(N)nc3ccccc3c2n1CC(C)(C)O [resiquimod]
infarct size ([2]; 0.8 mg/kg s.c. 72 hours prior to MCAO, 24 hours following MCAO): provides neuroprotection against cerebral ischemia
